Assay results taken from patent US8501734B2, “Medical intervention in haematological cancers” (Oncotyrol-Center for Personalized Cancer Medicine GmbH …, priority 2008, dated 2013).

Assays:
[1] = system: OPM2 cells; assay: Annexin V/PI apoptosis assay (FACS), OPM2 cells; assay type: cell-based; design: apoptosis induction: unit not given here; details: OPM2 cells
Protocol: (§1) After treatment adherent cells were trypsinized (as described before), and resuspended in corresponding full medium. Suspension cells or trypsinized adherent cells, supernatant and washing solution (1×PBS from washing before trypsinization) were pooled and then spun down (300 g for 3 min) washed in 2 ml and resuspended in 1000 of annexin V binding buffer and mixed with 2 μg/ml annexin V-Allophycocyanin (APC) (BD-Pharmingen, San Diego, Calif., USA) and 50 ng/ml of propidium iodide (PI; Sigma Aldrich). At least 10.000 cells were measured per sample using a Becton Dickinson FACSCalibur flow Cytometer (San Jose, Calif., USA). Percentage of Annexin V negative and PI negative cells were depicted in the figures. For the analysis of the pro-apoptotic activity of Imiquimod® in primary MM cells and non-malignant BMMCs, 5×10^5 cells BMMCs cells were treated with or without 40 μg/ml Imiquimod® for the indicated time periods. Cells were then harvested and washed twice with PBS. Detection of apoptotic cells was performed using the annexin V/PI assay according to manufacturers' instruction. Briefly, BMMCs were stained with a mixture of annexin V/FITC (Alexis Coorp., Laeufelfingen, Switzerland), propidium iodide (Sigma), anti-CD38-PE and anti-CD45-PC5 for 15 min at room temperature and immediately analyzed by flow cytometry. The percentages of viable cells (i.e. cells negative for annexin V/FITC and PI) within the MM (CD38^posCD45^low/absent) and non-MM fraction (CD38^neg/CD45^pos) were determined by flow cytometry.
Cells were cultured as described before and, treated with 40 μg/ml Imiquimod® or Gardiquimod® for 24 h, and apoptosis was assayed by AnnexinV/PI staining and FACS analysis.
(§2) Adherent cells were grown in 24-well plates to confluence and treated with 40 μg/ml Imiquimod® for 24 h. Cells were then trypsinized, suspended in full medium, stained for AnnexinV/PI and apoptosis was measured as described before. Suspension cells (250.000) were treated with 40 μg/ml Imiquimod® for 24 h, stained for Annexin/PI and apoptosis was measured as described above (Annexin V/Propidium Iodide apoptosis Assay).
(§3) OPM-2 and U266 cells (2.5×10^5 in 500 μl) were treated with either Imiquimod® alone (10 μg/500 μl), various inhibitors/drugs alone or with the combination of Imiquimod® and inhibitors for 24 or 48 h. In the controls the solvent of the drug has been added in appropriate amounts. Cells were then AnnexinV/PI stained and apoptosis measured as described before.

[2] = system: U266 cells; assay: Annexin V/PI apoptosis assay (FACS), U266 cells; assay type: cell-based; design: apoptosis induction: unit not given here; further: key: 0 for no; + for low; ++: + indicates the range of apoptosis induction; +++: + indicates the range of apoptosis induction; ++++ for very strong apoptosis induction
Protocol: as §1, §2, §3

[3] = 24 h, Imi 20 μg/ml + drug 10 nM
[4] = 24 h, Imi 20 μg/ml + drug 100 nM
[5] = 48 h, Imi 20 μg/ml + drug 10 nM
[6] = 48 h, Imi 20 μg/ml + drug 100 nM
[7] = 24 h, Imi 20 μg/ml + drug 10 μM
[8] = 24 h, Imi 20 μg/ml + drug 20 μM
[9] = 24 h, Imi 20 μg/ml + drug 50 μM
[10] = 48 h, Imi 20 μg/ml + drug 10 μM
[11] = 48 h, Imi 20 μg/ml + drug 20 μM
[12] = 48 h, Imi 20 μg/ml + drug 50 μM
[13] = 24 h, Imi 20 μg/ml + drug 100 μM
[14] = 48 h, Imi 20 μg/ml + drug 100 μM

C[C@@H]1C[C@H]2[C@@H]3CCC4=CC(=O)C=C[C@]4(C)[C@@]3(F)[C@@H](O)C[C@]2(C)[C@@]1(O)C(=O)CO [Dex., Dexamethasone]
apoptosis induction [1, 3]: +
apoptosis induction [1, 4]: +
apoptosis induction ([1]; 24 h, Imi 20 μg/ml + drug 1 μM): +
apoptosis induction ([1]; 24 h, drug alone 10 nM): 0
apoptosis induction ([1]; 24 h, drug alone 100 nM): 0
apoptosis induction ([1]; 24 h, drug alone 1 μM): 0
apoptosis induction [1, 5]: ++
apoptosis induction [1, 6]: +++
apoptosis induction ([1]; 48 h, Imi 20 μg/ml + drug 1 μM): +++
apoptosis induction ([1]; 48 h, drug alone 10 nM): 0
apoptosis induction ([1]; 48 h, drug alone 100 nM): 0
apoptosis induction ([1]; 48 h, drug alone 1 μM): 0
apoptosis induction [2, 3]: +
apoptosis induction [2, 4]: +
apoptosis induction ([2]; 24 h, Imi 20 μg/ml + drug 1 μM): +
apoptosis induction ([2]; 24 h, drug alone 10 nM): 0
apoptosis induction ([2]; 24 h, drug alone 100 nM): 0
apoptosis induction ([2]; 24 h, drug alone 1 μM): 0
apoptosis induction [2, 5]: +
apoptosis induction [2, 6]: +
apoptosis induction ([2]; 48 h, Imi 20 μg/ml + drug 1 μM): +
apoptosis induction ([2]; 48 h, drug alone 10 nM): 0
apoptosis induction ([2]; 48 h, drug alone 100 nM): 0
apoptosis induction ([2]; 48 h, drug alone 1 μM): 0

CCNCc1nc2c(N)nc3ccccc3c2n1CC(C)(C)O [Gardiquimod, 1-(4-Amino-2-ethylaminomethylimidazo[4,5-c]quinolin-1-yl)-2-methylpropan-2-ol]
apoptosis induction compared with Imiquimod ([1]; 40 μg/ml, 24 h): comparable, though slightly lower extend

Cn1c2ccccc2c2c3c(c4c5ccccc5n(CCC#N)c4c21)CNC3=O [Gö 6976]
apoptosis induction [1, 4]: +
apoptosis induction ([1]; 24 h, Imi 20 μg/ml + drug 1 μM): ++
apoptosis induction ([1]; 24 h, Imi 20 μg/ml + drug 5 μM): ++
apoptosis induction ([1]; 24 h, drug alone 100 nM): 0
apoptosis induction ([1]; 24 h, drug alone 1 μM): 0
apoptosis induction ([1]; 24 h, drug alone 5 μM): 0
apoptosis induction [1, 6]: ++
apoptosis induction ([1]; 48 h, Imi 20 μg/ml + drug 1 μM): +++
apoptosis induction ([1]; 48 h, Imi 20 μg/ml + drug 5 μM): +++
apoptosis induction ([1]; 48 h, drug alone 100 nM): 0
apoptosis induction ([1]; 48 h, drug alone 1 μM): 0
apoptosis induction ([1]; 48 h, drug alone 5 μM): +
apoptosis induction [2, 4]: +
apoptosis induction ([2]; 24 h, Imi 20 μg/ml + drug 1 μM): ++
apoptosis induction ([2]; 24 h, Imi 20 μg/ml + drug 5 μM): ++
apoptosis induction ([2]; 24 h, drug alone 100 nM): 0
apoptosis induction ([2]; 24 h, drug alone 1 μM): 0
apoptosis induction ([2]; 24 h, drug alone 5 μM): 0
apoptosis induction [2, 6]: ++
apoptosis induction ([2]; 48 h, Imi 20 μg/ml + drug 1 μM): +++
apoptosis induction ([2]; 48 h, Imi 20 μg/ml + drug 5 μM): +++
apoptosis induction ([2]; 48 h, drug alone 100 nM): 0
apoptosis induction ([2]; 48 h, drug alone 1 μM): 0
apoptosis induction ([2]; 48 h, drug alone 5 μM): +

N[C@@H](Cc1ccc(N(CCCl)CCCl)cc1)C(=O)O [Melphalan]
apoptosis induction [1, 7]: +
apoptosis induction [1, 8]: ++
apoptosis induction [1, 9]: ++
apoptosis induction ([1]; 24 h, drug alone 10 μM): +
apoptosis induction ([1]; 24 h, drug alone 20 μM): +
apoptosis induction ([1]; 24 h, drug alone 50 μM): ++
apoptosis induction [1, 10]: ++
apoptosis induction [1, 11]: ++++
apoptosis induction [1, 12]: ++++
apoptosis induction ([1]; 48 h, drug 20 μM and 50 μM + Imiquimod 20 μg/ml): nearly complete apoptosis induction in all cells
apoptosis induction ([1]; 48 h, drug alone 10 μM): +
apoptosis induction ([1]; 48 h, drug alone 20 μM): ++
apoptosis induction ([1]; 48 h, drug alone 50 μM): +++
apoptosis induction [2, 7]: +
apoptosis induction [2, 8]: ++
apoptosis induction [2, 9]: +++
apoptosis induction ([2]; 24 h, drug alone 10 μM): +
apoptosis induction ([2]; 24 h, drug alone 20 μM): +
apoptosis induction ([2]; 24 h, drug alone 50 μM): ++
apoptosis induction [2, 10]: ++
apoptosis induction [2, 11]: ++
apoptosis induction [2, 12]: +++
apoptosis induction ([2]; 48 h, drug alone 10 μM): +
apoptosis induction ([2]; 48 h, drug alone 20 μM): +
apoptosis induction ([2]; 48 h, drug alone 50 μM): +++

CNC(=O)c1cc(Oc2ccc(NC(=O)Nc3ccc(Cl)c(C(F)(F)F)c3)cc2)ccn1 [Sorafenib]
apoptosis induction ([1]; 24 h, Imi 20 μg/ml + drug 1 μM): +
apoptosis induction [1, 7]: +
apoptosis induction [1, 9]: ++++
apoptosis induction ([1]; 24 h, drug alone 1 μM): 0
apoptosis induction ([1]; 24 h, drug alone 10 μM): +
apoptosis induction ([1]; 24 h, drug alone 50 μM): ++++
cells in apoptosis ([1]; 48 h, 10 μM drug + Imiquimod 20 μg/ml): ~100%
apoptosis induction ([1]; 48 h, Imi 20 μg/ml + drug 1 μM): ++
apoptosis induction [1, 10]: ++++
apoptosis induction [1, 12]: ++++
apoptosis induction ([1]; 48 h, drug alone 1 μM): 0
apoptosis induction ([1]; 48 h, drug alone 10 μM): ++
apoptosis induction ([1]; 48 h, drug alone 50 μM): ++++
cell killing ([1]; drug alone 50 μM): completely killed cells
apoptosis induction ([2]; 24 h, Imi 20 μg/ml + drug 1 μM): 0
apoptosis induction [2, 7]: +
apoptosis induction [2, 9]: +++
apoptosis induction ([2]; 24 h, drug alone 1 μM): 0
apoptosis induction ([2]; 24 h, drug alone 10 μM): 0
apoptosis induction ([2]; 24 h, drug alone 50 μM): +++
apoptosis induction ([2]; 48 h, Imi 20 μg/ml + drug 1 μM): +
apoptosis induction [2, 10]: ++
apoptosis induction [2, 12]: +++
apoptosis induction ([2]; 48 h, drug alone 1 μM): +
apoptosis induction ([2]; 48 h, drug alone 10 μM): +
apoptosis induction ([2]; 48 h, drug alone 50 μM): +++

O=C1CCC(N2C(=O)c3ccccc3C2=O)C(=O)N1 (stereo not shown) [Thalidomide]
apoptosis induction [1, 7]: +
apoptosis induction [1, 13]: +
apoptosis induction ([1]; 24 h, Imi 20 μg/ml + drug 1 mM): +
apoptosis induction ([1]; 24 h, drug alone 10 μM): 0
apoptosis induction ([1]; 24 h, drug alone 100 μM): 0
apoptosis induction ([1]; 24 h, drug alone 1 mM): 0
apoptosis induction [1, 10]: ++
apoptosis induction [1, 14]: ++
apoptosis induction ([1]; 48 h, Imi 20 μg/ml + drug 1 mM): +++
apoptosis induction ([1]; 48 h, drug alone 10 μM): 0
apoptosis induction ([1]; 48 h, drug alone 100 μM): 0
apoptosis induction ([1]; 48 h, drug alone 1 mM): 0
apoptosis induction [2, 7]: +
apoptosis induction [2, 13]: +
apoptosis induction ([2]; 24 h, Imi 20 μg/ml + drug 1 mM): +
apoptosis induction ([2]; 24 h, drug alone 10 μM): 0
apoptosis induction ([2]; 24 h, drug alone 100 μM): 0
apoptosis induction ([2]; 24 h, drug alone 1 mM): +
apoptosis induction [2, 10]: +
apoptosis induction [2, 14]: +
apoptosis induction ([2]; 48 h, Imi 20 μg/ml + drug 1 mM): +
apoptosis induction ([2]; 48 h, drug alone 10 μM): 0
apoptosis induction ([2]; 48 h, drug alone 100 μM): 0
apoptosis induction ([2]; 48 h, drug alone 1 mM): +
